{
  "source": "patent US20170079966A1",
  "about": "“INHIBITION OF TUMOR CELL INTERACTIONS WITH THE MICROENVIRONMENT RESULTING IN A REDUCTION IN TUMOR GROWTH AND DISEASE PROGRESSION” (Deciphera Pharmaceuticals, LLC, priority 2014, published 2017)",
  "key": {"[1]": {"system": "HMVEC capillary tube formation", "assay": "HMVEC capillary tube formation", "type": "cell-based", "settings": "Homo sapiens", "protocol": "Growth factor reduced Matrigel gel solution (BD Biosciences, San Jose, Calif.) was dispensed using pre-chilled tips into each well of a pre-chilled 96-well black, clear bottom, tissue-culture treated plate. The plate was incubated at 37° C. for 1 h to allow the matrix to form a gel. […] The cell/Compound 1 suspensions were then transferred to the Matrigel plate wells and incubated overnight. The final concentration of DMSO in the assay was 0.5%. The next day, cells were stained with Calcein-AM dye (Life Technologies). Images obtained via fluorescent microscopy were analyzed for tube length using ImagePro Analyzer (Media Cybernetics, Rockville, Md.) with a macro to automatically detect and measure tube formation."}, "SKOV-3": {"system": "SKOV-3", "assay": "SKOV-3 ovarian xenograft model", "settings": "in vivo"}, "[2]": {"system": "circulating TIE2+ and TIE2+/MET+ monocytes", "assay": "Flow cytometry of circulating TIE2/MET-expressing monocytes from U87-MG xenograft model", "type": "in vivo, mice", "settings": "single agents; after five weeks of treatment", "protocol": "Flow cytometry of circulating TIE2/MET-expressing monocytes from U87-MG xenograft model. Peripheral blood samples were fixed using Lyse/Fix buffer (BD Biosciences, San Jose, Calif.). BD Fc Block was added and cells were stained with CD11b-PECy7 and Gr1-APC antibodies (BD Pharmingen), and TIE2-PE and MET-FITC antibodies (eBioscience) or isotype controls. Data was collected on an Accuri C6 cytometer. Monocytes were gated using side and forward scatter.\nTo monitor these monocytes in the U87 survival model, peripheral monocytes were gated on CD11b+/Grl-surface markers and TIE2^+ and/or TIE2^+/MET^+ cells quantitated. In the U87 glioma survival study, we observed both of these TIE2^+ expressing monocyte populations in the circulation of vehicle-treated mice after five weeks of treatment. […] The lowered population of both of these TIE2^+ monocyte populations in the combination cohort was consistent with greater survival benefit (FIG. 6)."}, "TIE2": {"biological_target": "TIE2 (Homo sapiens, UniProt Q02763)", "sequence (Q02763 23-1124, species assumed)": "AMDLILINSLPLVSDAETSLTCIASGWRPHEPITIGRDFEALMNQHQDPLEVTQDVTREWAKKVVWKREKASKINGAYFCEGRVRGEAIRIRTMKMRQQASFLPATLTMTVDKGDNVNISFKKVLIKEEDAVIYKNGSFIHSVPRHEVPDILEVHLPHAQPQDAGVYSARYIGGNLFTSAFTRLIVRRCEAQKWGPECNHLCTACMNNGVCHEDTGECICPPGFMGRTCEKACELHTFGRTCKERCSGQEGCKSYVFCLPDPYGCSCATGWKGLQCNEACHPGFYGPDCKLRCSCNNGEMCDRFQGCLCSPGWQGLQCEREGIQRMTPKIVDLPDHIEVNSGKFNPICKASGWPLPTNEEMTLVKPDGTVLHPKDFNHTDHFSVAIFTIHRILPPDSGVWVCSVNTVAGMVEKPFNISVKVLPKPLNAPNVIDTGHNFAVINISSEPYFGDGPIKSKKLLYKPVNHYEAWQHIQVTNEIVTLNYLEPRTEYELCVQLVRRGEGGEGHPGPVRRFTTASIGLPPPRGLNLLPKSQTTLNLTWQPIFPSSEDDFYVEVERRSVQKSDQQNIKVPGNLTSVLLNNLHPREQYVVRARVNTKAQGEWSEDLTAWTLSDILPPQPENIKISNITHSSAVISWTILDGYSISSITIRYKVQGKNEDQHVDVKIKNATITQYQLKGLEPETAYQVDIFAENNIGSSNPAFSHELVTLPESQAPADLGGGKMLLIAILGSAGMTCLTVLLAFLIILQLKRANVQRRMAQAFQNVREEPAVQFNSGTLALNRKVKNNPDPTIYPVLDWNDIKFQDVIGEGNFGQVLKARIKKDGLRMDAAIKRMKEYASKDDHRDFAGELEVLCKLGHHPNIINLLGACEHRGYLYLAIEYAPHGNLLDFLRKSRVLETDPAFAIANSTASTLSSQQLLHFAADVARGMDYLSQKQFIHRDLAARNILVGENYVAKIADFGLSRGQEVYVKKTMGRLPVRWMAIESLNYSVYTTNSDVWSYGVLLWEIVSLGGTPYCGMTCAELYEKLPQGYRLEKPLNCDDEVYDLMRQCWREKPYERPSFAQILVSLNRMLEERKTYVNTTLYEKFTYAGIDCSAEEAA", "assay": "Phospho-TIE2 Western blot in TIE2 expressing CHO-K1 cells", "type": "cell-based", "set-up": "expressed in transfected cells; host or cells: CHO-K1 (ATCC CCL-61), transient transfection", "settings": "CHO cells transiently expressing TIE2; 4 hours; read-out: IC50, inhibiting the constitutive phosphorylation of TIE2", "protocol": "Briefly, cells were grown in F12K medium supplemented with 10% characterized fetal bovine serum (Invitrogen, Carlsbad, Calif.), 100 units/mL penicillin G, 100 μg/ml streptomycin, and 0.29 mg/mL L-glutamine (Invitrogen, Carlsbad, Calif.) at 37 degrees Celsius, 5% CO2, and 95% humidity.\nCHO K1 cells (1×10^5 cells/well) were added to a 24-well tissue-culture treated plate in 1 mL of RPMI1640 medium supplemented with 10% characterized fetal bovine serum and 1× non-essential amino acids (Invitrogen, Carlsbad, Calif.). Cells were then incubated overnight at 37 degrees Celsius, 5% CO2, and 95% humidity. Medium was aspirated, and 0.5 mL of medium was added to each well. Transfection-grade plasmid DNA (TIE2 gene Gateway cloned into pcDNA3.2™/V5-DEST expression vector, Invitrogen, Carlsbad, Calif.) was diluted to 5 μg/mL in room temperature Opti-MEM® I Medium without serum (Invitrogen, Carlsbad, Calif.). Two μL of Lipofectamine LTX Reagent (Invitrogen, Carlsbad, Calif.) was added per 0.5 μg of plasmid DNA. […] Fluorescence was detected using a Storm 840 phosphorimager (GE Healthcare, Piscataway, N.J.) in fluorescence mode. […] The 160 kDa phospho-TIE2 and total TIE2 bands were quantified using ImageQuant software (GE Healthcare, Piscataway, N.J.), and data was plotted using Prism software (GraphPad Software, San Diego, Calif.)."}},
  "note": "Read-outs that look alike come from different tables or passages of the source.",
  "data": [
    {"smiles": "O=C(Nc1cc(Oc2cc(F)c(NC(=O)C3(C(=O)Nc4ccc(F)cc4)CC3)cc2F)ccn1)C1CC1", "note": "[Compound 1, N-(4-(2-(cyclopropanecarboxamido)pyridin-4-yloxy)-2,5-difluorophenyl)-N′-(4-fluorophenyl)cyclopropane-1,1-dicarboxamide]", "values": [
      {"measurement": "IC50", "setting": "[1]; 40 ng/mL HGF, read-out: IC50, capillary tube formation upon stimulation with HGF", "value": 11, "unit": "nM"},
      {"measurement": "IC50", "setting": "[1]; 100 ng/mL VEGF, read-out: IC50, capillary tube formation upon stimulation with VEGF", "value": 58, "unit": "nM"},
      {"measurement": "IC50", "setting": "[1]; 200 ng/mL ANG2, read-out: IC50, capillary tube formation upon stimulation with ANG2", "value": 7, "unit": "nM"},
      {"measurement": "Day 22 % T/C", "setting": "A375; 10 mg/kg, orally, BID", "value": 47, "unit": "%"},
      {"measurement": "Median tumor growth delay", "setting": "A375; 10 mg/kg, orally, BID", "value": "> 12.4", "unit": "days"},
      {"measurement": "Day 22 % T/C", "setting": "A375; 20 mg/kg, orally, QD", "value": 33, "unit": "%"},
      {"measurement": "Tumor growth delay", "setting": "A375; 20 mg/kg, orally, QD", "value": 15.7, "unit": "days"},
      {"measurement": "CD31+ microvessel area in tumor sections at the end of study", "setting": "A375; mouse, in vivo", "value": "significant decreases"},
      {"measurement": "SKOV-3 tumor growth", "setting": "SKOV-3", "value": "only weakly inhibited"},
      {"measurement": "Numbers of circulating TIE2+ and TIE2+/MET+ monocyte populations", "setting": "[2]", "value": "did not alter"},
      {"measurement": "IC50", "setting": "TIE2", "value": 2.4, "unit": "nM"}
    ]}
  ]
}
